Reference: patent US20120313040A1, “COATING LIQUID, OPTICAL ANISOTROPIC FILM AND IMAGE DISPLAY DEVICE” (NITTO DENKO CORPORATION, priority 2011, published 2012)
Where two headings read alike, the source gives them in different places.

Legend:
[1] = Dissolution in ion-exchanged water to prepare a 30 mass % coating liquid; type: physicochemical
Description: The lyotropic liquid crystalline compound of formula (4) was dissolved in ion-exchanged water, thereby preparing a coating liquid having a concentration of the lyotropic liquid crystalline compound of 30 mass %.
The lyotropic liquid crystalline compound of formula (5) was dissolved in ion-exchanged water, thereby preparing a coating liquid having a concentration of the lyotropic liquid crystalline compound of 30 mass %.
In Comparative Example 1, there was used a perylenetetracarboxylic acid diimide represented by formula (6), which was an intermediate product in Synthesis Example 1 of Lyotropic Liquid Crystalline Compound. Using this compound, it was tried to obtain a coating liquid having a concentration of the lyotropic liquid crystalline compound of 30 mass % in the same manner as in Example 1.
In Comparative Example 2, there was used a compound represented by formula (7), which was an intermediate product in Synthesis Example 2 of Lyotropic Liquid Crystalline Compound. Using this compound, it was tried to obtain a coating liquid having a concentration of the lyotropic liquid crystalline compound of 30 mass % in the same manner as in Example 1.

[2] = Observation of liquid crystal phase of the coating liquid under a polarizing microscope; type: physicochemical; settings: 30 mass % in ion-exchanged water, observed at 23° C.
Text: A small amount of the coating liquid was sandwiched between two glass slides, and a liquid crystal phase thereof was observed using a polarizing microscope (manufactured by Olympus Corporation, product name: “OPTIPHOT-POL”) equipped with a large-sized sample heating/cooling stage for microscope (manufactured by Japan High Tech Co., Ltd., product: name “10013L”).

Row | Compound | solubility in ion-exchanged water ([1]; ion-exchanged water, target concentration 30 mass %) | liquid crystal phase of coating liquid [2] | solubility in ion-exchanged water [1]
1 | C[n+]1ccc(N2C(=O)c3ccc4c5ccc6c7c(ccc(c8ccc(c3c48)C2=O)c75)C(=O)N(c2cc[n+](C)cc2)C6=O)cc1 [formula (4), N,N′-bis(4-N-methylpyridyl)-3,4,9,10-perylenecarboxylic acid diimide dichloride] | dissolved in water easily and well | nematic liquid crystal phase | 
2 | C[n+]1ccc2c(c1)nc1c3ccc4c5ccc6c(=O)n7c8cc[n+](C)cc8nc7c7ccc(c8ccc(c(=O)n21)c3c84)c5c67 [formula (5)] |  | nematic liquid crystal phase | dissolved in water easily and well
3 | O=C1c2ccc3c4ccc5c6c(ccc(c7ccc(c2c37)C(=O)N1c1ccncc1)c64)C(=O)N(c1ccncc1)C5=O [formula (6), perylenetetracarboxylic acid diimide, reference compound] |  |  | scarcely dissolved in ion-exchanged water
4 | O=c1c2ccc3c4ccc5c6c(ccc(c7ccc(c2c37)c2nc3cnccc3n12)c46)c(=O)n1c2ccncc2nc51 [formula (7), reference compound] |  | no liquid crystal phase | scarcely dissolved in ion-exchanged water
